Source: ChEMBL document CHEMBL6134851, “Comparative Study on Covalent and Noncovalent Endogenous Albumin-Binding β-Glucuronidase-Activated SN38 Prodrugs for Antitumor Efficacy” (J Med Chem, 2025)
Calls of active or inactive are those of the source. No cut-off for these calls is given here.

What was measured:
[1] = Cmax in female BALB/c mouse at 25 mg/kg measured up to 120 hrs by HPLC analysis; format: ADME, organism-based; details: in vivo
[2] = Half life in female BALB/c mouse at 25 mg/kg measured up to 120 hrs by HPLC analysis; format: ADME, organism-based; details: in vivo
[3] = Volume of distribution in female BALB/c mouse at 25 mg/kg measured up to 120 hrs by HPLC analysis; format: ADME, organism-based; details: in vivo
HCT-116 [4] = assay: Antitumor activity against human HCT-116 cells xenografted in female BALB/cA nude mouse model assessed as tumor shrinkage at 25 mg/kg, iv administered twice per week measured after 65 days relative to control; format: functional; details: time 65 day
HCT-116 [5] = assay: Antitumor activity against human HCT-116 cells xenografted in female BALB/cA nude mouse model assessed as tumor shrinkage at 25 mg/kg, iv administered twice per week measured after 100 days relative to control; format: functional; details: time 100 day
[6] = Toxicity in female BALB/cA nude mouse assessed as effect on body weight loss at 25 mg/kg, iv administered twice per week measured after 107 days; format: organism-based; details: in vivo, 2568 h, time 107 day
[7] = Toxicity in female BALB/cA nude mouse assessed as necrosis in tumor tissue at 25 mg/kg, iv measured after 24 hrs by H and E staining based analysis; format: organism-based; details: in vivo
[8] = Toxicity in female BALB/cA nude mouse assessed as inflammatory response in liver at 25 mg/kg, iv measured after 24 hrs by H and E staining based analysis; format: organism-based; details: in vivo
HCT-116 [9] = assay: Antitumor activity against human HCT-116 cells xenografted in female BALB/cA nude mouse model assessed as increase in tumor cell apoptosis by measuring increase in red fluorescence at 25 mg/kg, iv by TUNEL analysis; format: functional, organism-based
[10] = Toxicity in female BALB/cA nude mouse assessed as appearance of inflammatory lesions in tumor at 25 mg/kg, iv administered once a week for 35 days by H and E staining based analysis; format: organism-based; details: in vivo, 840 h, time 35 day
[11] = Toxicity in female BALB/cA nude mouse assessed as appearance of inflammatory lesions in liver at 25 mg/kg, iv administered once a week for 35 days by H and E staining based analysis; format: organism-based; details: in vivo, 840 h, time 35 day
[12] = Toxicity in female BALB/cA nude mouse assessed as appearance of inflammatory lesions in kidney at 25 mg/kg, iv administered once a week for 35 days by H and E staining based analysis; format: organism-based; details: in vivo, 840 h, time 35 day
[13] = Toxicity in female BALB/cA nude mouse assessed as fibrotic changes in tumor at 25 mg/kg, iv administered once a week for 35 days by H and E staining based analysis; format: organism-based; details: in vivo, 840 h, time 35 day
[14] = Toxicity in female BALB/cA nude mouse assessed as fibrotic changes in heart at 25 mg/kg, iv administered once a week for 35 days by H and E staining based analysis; format: organism-based; details: in vivo, 840 h, time 35 day
[15] = Toxicity in female BALB/cA nude mouse assessed as fibrotic changes in spleen at 25 mg/kg, iv administered once a week for 35 days by H and E staining based analysis; format: organism-based; details: in vivo, 840 h, time 35 day
[16] = Toxicity in female BALB/cA nude mouse assessed as fibrotic changes in lung at 25 mg/kg, iv administered once a week for 35 days by H and E staining based analysis; format: organism-based; details: in vivo, 840 h, time 35 day
[17] = Toxicity in female BALB/cA nude mouse assessed as fibrotic changes in kidney at 25 mg/kg, iv administered once a week for 35 days by H and E staining based analysis; format: organism-based; details: in vivo, 840 h, time 35 day
[18] = Toxicity in female BALB/cA nude mouse assessed as effect on body weight loss at 25 mg/kg, iv administered once a week for 35 days; format: organism-based; details: in vivo, 840 h, time 35 day
[19] = Half life in female BALB/c mouse at 38 mg/kg measured up to 168 hrs by HPLC analysis; format: ADME, organism-based; details: in vivo
[20] = Volume of distribution in female BALB/c mouse at 38 mg/kg measured up to 168 hrs by HPLC analysis; format: ADME, organism-based; details: in vivo
[21] = Clearance in female BALB/c mouse at 38 mg/kg measured up to 168 hrs by HPLC analysis; format: ADME, organism-based; details: in vivo
[22] = AUC (0 to t) in female BALB/c mouse at 38 mg/kg measured up to 168 hrs by HPLC analysis; format: ADME, organism-based; details: in vivo
[23] = Prodrug release in female BALB/c nude mouse tumor assessed as (S)-4,11-diethyl-4,9-dihydroxy-1,12-dihydro-14H-pyrano[3',4':6,7]indolizino[1,2-b]quinoline-3,14(4H)-dione accumulation at 38 mg/kg measured after 6 hrs by HPLC analysis; format: ADME, organism-based, Neoplasm; details: in vivo
HCT-116 [24] = assay: Antitumor activity against human HCT-116 cells xenografted in female BALB/cA nude mouse model assessed as relative tumor proliferation rate at 38 mg/kg, iv administered twice per week measured after 107 days; format: functional, organism-based; details: time 107.0 day
[25] = Toxicity in female BALB/cA nude mouse assessed as necrosis in tumor tissue at 38 mg/kg, iv measured after 24 hrs by H and E staining based analysis; format: organism-based; details: in vivo
[26] = Toxicity in female BALB/cA nude mouse assessed as damage in lung at 38 mg/kg, iv measured after 24 hrs by H and E staining based analysis; format: organism-based; details: in vivo
[27] = Toxicity in female BALB/cA nude mouse assessed as appearance of fibrosis in lung at 38 mg/kg, iv measured after 24 hrs by H and E staining based analysis; format: organism-based; details: in vivo
BXPC-3 = assay: Antitumor activity against human BXPC-3 cells xenografted in female BALB/cA nude mouse model assessed as suppression of tumor growth by measuring relative tumor proliferation rate at 38 mg/kg, iv measured after 18 days; format: functional, organism-based; details: time 18.0 day
[28] = Toxicity in female BALB/cA nude mouse assessed as animal fatality at 38 mg/kg, iv administered once a week for 35 days; format: organism-based; details: in vivo, 840 h, time 35 day
[29] = Toxicity in female BALB/cA nude mouse assessed as effect on body weight loss at 38 mg/kg, iv administered once a week for 35 days; format: organism-based; details: in vivo, 840 h, time 35 day
[30] = Toxicity in female BALB/cA nude mouse assessed as appearance of inflammatory lesions in liver at 38 mg/kg, iv administered once a week for 35 days by H and E staining based analysis; format: organism-based; details: in vivo, 840 h, time 35 day
[31] = Toxicity in female BALB/cA nude mouse assessed as appearance of inflammatory lesions in spleen at 38 mg/kg, iv administered once a week for 35 days by H and E staining based analysis; format: organism-based; details: in vivo, 840 h, time 35 day
[32] = Toxicity in female BALB/cA nude mouse assessed as appearance of inflammatory lesions in kidney at 38 mg/kg, iv administered once a week for 35 days by H and E staining based analysis; format: organism-based; details: in vivo, 840 h, time 35 day
[33] = Toxicity in female BALB/cA nude mouse assessed as fibrotic changes in spleen at 38 mg/kg, iv administered once a week for 35 days by H and E staining based analysis; format: organism-based; details: in vivo, 840 h, time 35 day
[34] = Toxicity in female BALB/cA nude mouse assessed as fibrotic changes in lung at 38 mg/kg, iv administered once a week for 35 days by H and E staining based analysis; format: organism-based; details: in vivo, 840 h, time 35 day
Albumin = Albumin (Homo sapiens, UniProt P02768); assay: Binding affinity to human serum albumin assessed as binding rate measured after 24 mins by HPLC analysis relative to control; format: ADME; details: isolated protein, 0.4 h
Chain of Albumin (P02768 whole entry): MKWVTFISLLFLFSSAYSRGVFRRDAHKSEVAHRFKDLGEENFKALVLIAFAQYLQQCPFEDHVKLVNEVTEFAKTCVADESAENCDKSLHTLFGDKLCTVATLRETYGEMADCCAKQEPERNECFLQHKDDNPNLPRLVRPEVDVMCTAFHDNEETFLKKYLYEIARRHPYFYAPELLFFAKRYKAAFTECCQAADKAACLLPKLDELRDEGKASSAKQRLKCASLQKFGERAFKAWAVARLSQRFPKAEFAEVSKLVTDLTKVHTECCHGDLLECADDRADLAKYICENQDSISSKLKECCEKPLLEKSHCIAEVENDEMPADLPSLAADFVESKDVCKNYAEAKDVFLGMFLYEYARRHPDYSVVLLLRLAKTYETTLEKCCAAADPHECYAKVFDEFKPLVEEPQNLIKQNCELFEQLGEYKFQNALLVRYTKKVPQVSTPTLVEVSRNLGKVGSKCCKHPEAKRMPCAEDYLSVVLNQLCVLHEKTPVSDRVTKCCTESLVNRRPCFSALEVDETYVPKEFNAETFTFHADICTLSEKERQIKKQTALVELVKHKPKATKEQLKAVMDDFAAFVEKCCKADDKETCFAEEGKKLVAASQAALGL

SMILES: CCc1c2c(nc3ccc(OCc4ccc(O[C@@H]5O[C@H](C(=O)O)[C@@H](O)[C@H](O)[C@H]5O)c(NC(=O)CCNC(=O)CCCCCN5C(=O)C=CC5=O)c4)cc13)-c1cc3c(c(=O)n1C2)COC(=O)[C@]3(O)CC
- Cmax [1]: 50.7 µg/mL
- t1/2 [2]: 52.31 h
- Vd [3]: 0.61 L/kg
- Activity (HCT-116 [4]): 100%
- Activity (HCT-116 [5]): 100%
- Activity [6]: Non-toxic
- Activity [7]: Toxic
- Activity [8]: Toxic
- Activity (HCT-116 [9]): Active
- Activity [10]: Non-toxic
- Activity [11]: Non-toxic
- Activity [12]: Non-toxic
- Activity [13]: Non-toxic
- Activity [14]: Non-toxic
- Activity [15]: Non-toxic
- Activity [16]: Non-toxic
- Activity [17]: Non-toxic
- Activity [18]: Non-toxic

SMILES: CCc1c2c(nc3ccc(OCc4ccc(O[C@@H]5O[C@H](C(=O)O)[C@@H](O)[C@H](O)[C@H]5O)c(NC(=O)CCNC(=O)COCCOCCNC(=O)COCCOCCNC(=O)CC[C@H](NC(=O)CCCCCCCCCCCCCCCCC(=O)O)C(=O)O)c4)cc13)-c1cc3c(c(=O)n1C2)COC(=O)[C@]3(O)CC
- half-life [19]: 3.65 h
- Vd [20]: 0.24 L/kg
- clearance [21]: 0.753 mL/min/kg
- AUC(0-t) at 168 h [22]: 837 µg·h/mL
- Drug metabolism [23]: 0.376 % ID/g
- Activity (HCT-116 [24]): inactive
- Activity [25]: Toxic
- Activity [26]: Toxic
- Activity [27]: Toxic
- Activity (BXPC-3): inactive
- Activity [28]: Non-toxic
- Activity [29]: Non-toxic
- Activity [30]: Non-toxic
- Activity [31]: Non-toxic
- Activity [32]: Non-toxic
- Activity [33]: Non-toxic
- Activity [34]: Non-toxic
- Activity (Albumin): 94%
